Reference: paper PMC13415951 (Journal of Experimental Botany, 2026)
Several values for one entry are separate records, joined by “and”; a condition that tells them apart may be missing. Equal values may be shown once. Read-outs that look alike come from different tables or passages of the source.

Tests used:
[1] = target: T1, OsUGT79 (Oryza sativa subsp. japonica, UniProt Q7XT97); experiment: biochemical; assay type: biochemical
T1 construct: made in house; host or cells: E. coli
T1 sequence (Q7XT97 1-466): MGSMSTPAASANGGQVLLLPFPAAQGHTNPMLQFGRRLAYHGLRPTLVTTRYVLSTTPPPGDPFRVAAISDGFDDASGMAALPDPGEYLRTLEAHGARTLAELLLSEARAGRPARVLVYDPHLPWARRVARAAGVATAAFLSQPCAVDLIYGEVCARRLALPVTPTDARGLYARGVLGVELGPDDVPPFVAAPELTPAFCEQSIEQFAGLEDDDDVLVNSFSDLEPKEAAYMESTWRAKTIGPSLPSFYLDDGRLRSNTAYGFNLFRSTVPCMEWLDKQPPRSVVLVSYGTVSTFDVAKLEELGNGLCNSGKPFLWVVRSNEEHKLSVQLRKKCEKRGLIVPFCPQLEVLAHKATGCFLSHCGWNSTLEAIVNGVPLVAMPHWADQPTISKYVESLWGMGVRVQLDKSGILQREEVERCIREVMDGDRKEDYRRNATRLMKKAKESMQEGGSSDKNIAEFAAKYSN

[2] = target: T2, BdUGT5g03300 (Brachypodium distachyon, UniProt I1IW79); experiment: biochemical
T2 sequence (I1IW79 1-469): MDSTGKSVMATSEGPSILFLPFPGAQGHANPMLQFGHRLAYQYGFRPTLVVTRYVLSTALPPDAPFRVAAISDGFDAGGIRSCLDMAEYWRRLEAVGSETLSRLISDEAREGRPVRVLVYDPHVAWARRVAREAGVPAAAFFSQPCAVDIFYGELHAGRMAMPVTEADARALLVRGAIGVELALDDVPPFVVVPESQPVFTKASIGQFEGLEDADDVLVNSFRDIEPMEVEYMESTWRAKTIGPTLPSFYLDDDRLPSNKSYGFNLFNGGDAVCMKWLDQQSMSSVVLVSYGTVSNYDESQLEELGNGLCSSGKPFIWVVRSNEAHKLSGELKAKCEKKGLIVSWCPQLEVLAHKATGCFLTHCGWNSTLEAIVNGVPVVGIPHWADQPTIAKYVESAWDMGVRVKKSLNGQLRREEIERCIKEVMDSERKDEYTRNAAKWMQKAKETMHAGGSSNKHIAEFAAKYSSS

[3] = target: T3, HvUGT13248 (Hordeum vulgare subsp. vulgare, UniProt M0Y4P1)
T3 sequence (M0Y4P1 1-475): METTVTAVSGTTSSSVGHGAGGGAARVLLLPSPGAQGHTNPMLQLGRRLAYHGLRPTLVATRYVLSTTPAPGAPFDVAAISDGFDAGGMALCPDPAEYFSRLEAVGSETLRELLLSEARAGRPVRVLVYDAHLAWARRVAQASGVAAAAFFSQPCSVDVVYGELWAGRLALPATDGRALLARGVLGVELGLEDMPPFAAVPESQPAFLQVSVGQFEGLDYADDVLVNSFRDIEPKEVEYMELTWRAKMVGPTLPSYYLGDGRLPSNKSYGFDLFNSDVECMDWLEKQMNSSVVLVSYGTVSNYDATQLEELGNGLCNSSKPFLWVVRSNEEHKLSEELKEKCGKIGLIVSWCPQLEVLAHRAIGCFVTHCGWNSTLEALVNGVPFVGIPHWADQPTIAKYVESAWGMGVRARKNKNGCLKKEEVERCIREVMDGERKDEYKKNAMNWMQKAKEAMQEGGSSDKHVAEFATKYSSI

[4] = target: T3, HvUGT13248; experiment: biochemical; assay type: biochemical; set-up: made in house; host or cells: E. coli
[5] = target: T4, OsUGT79 Q202A (Oryza sativa subsp. japonica, UniProt Q7XT97, Q202A); assay type: biochemical
T4 sequence (Q7XT97 1-466 Q202A): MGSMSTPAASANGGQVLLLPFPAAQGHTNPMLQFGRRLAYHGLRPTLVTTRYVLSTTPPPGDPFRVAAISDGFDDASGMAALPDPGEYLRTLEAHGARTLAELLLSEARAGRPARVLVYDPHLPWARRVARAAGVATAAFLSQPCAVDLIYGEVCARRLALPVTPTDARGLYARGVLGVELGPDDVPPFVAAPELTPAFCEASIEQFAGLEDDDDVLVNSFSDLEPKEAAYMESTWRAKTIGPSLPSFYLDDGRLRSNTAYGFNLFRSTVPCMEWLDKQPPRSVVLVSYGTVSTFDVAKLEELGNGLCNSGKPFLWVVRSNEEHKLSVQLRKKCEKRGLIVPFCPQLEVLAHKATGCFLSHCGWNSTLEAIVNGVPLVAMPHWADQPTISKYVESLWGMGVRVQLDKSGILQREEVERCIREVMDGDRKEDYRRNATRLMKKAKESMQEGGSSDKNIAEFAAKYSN

[6] = target: T1, OsUGT79; experiment: biochemical; assay type: biochemical; remark: listed apart in the source
[7] = system: wheat cultivar Apogee seedlings; set-up: species or system Triticum aestivum; settings: in vivo
[8] = target: T5, OsUGT79 H122A/L123A/Q202A (Oryza sativa subsp. japonica, UniProt Q7XT97, H122A/L123A/Q202A); experiment: biochemical; assay type: biochemical
T5 sequence (Q7XT97 1-466 H122A/L123A/Q202A): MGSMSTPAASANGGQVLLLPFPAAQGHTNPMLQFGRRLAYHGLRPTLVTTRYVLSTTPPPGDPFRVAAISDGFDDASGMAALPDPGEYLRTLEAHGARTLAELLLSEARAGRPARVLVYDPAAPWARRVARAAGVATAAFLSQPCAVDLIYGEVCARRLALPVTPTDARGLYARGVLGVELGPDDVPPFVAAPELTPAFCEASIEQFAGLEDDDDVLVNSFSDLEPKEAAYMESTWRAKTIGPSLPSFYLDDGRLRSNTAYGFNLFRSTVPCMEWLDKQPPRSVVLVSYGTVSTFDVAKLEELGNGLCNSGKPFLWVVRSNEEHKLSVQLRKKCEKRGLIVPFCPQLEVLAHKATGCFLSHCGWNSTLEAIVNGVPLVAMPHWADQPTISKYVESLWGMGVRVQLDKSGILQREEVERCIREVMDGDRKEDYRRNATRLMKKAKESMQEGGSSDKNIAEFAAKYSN

[9] = target: T5, OsUGT79 H122A/L123A/Q202A; assay type: biochemical
[10] = target: T2, BdUGT5g03300; assay type: biochemical
[11] = target: T4, OsUGT79 Q202A; experiment: biochemical; assay type: biochemical
[12] = system: B. distachyon line OE-10R14; set-up: species or system Brachypodium distachyon; settings: in vivo
[13] = system: B. distachyon Bd21-3; set-up: species or system Brachypodium distachyon; settings: in vivo
[14] = substrate: CC1(C)CCC[C@]2(C)[C@@H]3[C@H]1[C@@H](O)[C@@]2(C)C[C@H]3O; experiment: purified protein, by the assay type

For Culmorin-8-glucoside, the “Glucosylation rate of DON, percentage of the control” value [1] was 97±7% and 91±7%, the “Glucosylation rate of DON, percentage of the control” value [2] was 0.93±0.02% and the “Glucosylation rate of DON, percentage of the control” value [3] was 92±2% and 81±3%.

Culmorin-11-glucoside was tested, and the “Glucosylation rate of DON, percentage of the control” value [1] was 96±7% and 115±5% and the “Glucosylation rate of DON, percentage of the control” value [2] was 0.48±0.03%.

Culmorin-11-sulfate was tested, and the “Glucosylation rate of DON, percentage of the control” value [1] was 91±7% and 61±2%, the “Glucosylation rate of DON, percentage of the control” value [2] was 0.30±0.02% and the “Glucosylation rate of DON, percentage of the control” value [3] was 90±2% and 49±3%.

Culmorin-8,11-disulfate was tested, and the “Glucosylation rate of DON, percentage of the control” value [1] was 103±2% and 99±7%, the “Glucosylation rate of DON, percentage of the control” value [2] was 95±1% and 78±1% and the “Glucosylation rate of DON, percentage of the control” value [3] was 98±2%.

Culmorin-8-sulfate was tested, and the “Glucosylation rate of DON, percentage of the control” value [1] was 105±1% and 89±4% and the “Glucosylation rate of DON, percentage of the control” value [3] was 97±4% and 79±1%.

11-Acetyl-culmorin was tested, and the “Glucosylation rate of DON, percentage of the control” value [2] was 0.83±0.01%.

With `CC1=C[C@H]2O[C@@H]3[C@H](O)C[C@](C)([C@@]2(CO)[C@H](O)C1=O)[C@]31CO1` [DON, deoxynivalenol] the “K M (DON)” value [4] was 1800 µM, the “V max with DON” value [4] was 0.18 µmol/min/mg and the “Specific activity (glucoside formation)” value [5] was 161 ± 46 nmol/min/mg. For the same molecule, the “Specific activity (glucoside formation)” value [1] was 159 ± 33 nmol/min/mg, the “K M (DON)” value [6] was 190 µM and the “V max with DON” value [6] was 0.63 µmol/min/mg. For the same molecule, the “DON concentration at which root growth was already impaired” value [7] was 3 mg/L, the “Effect on primary and total root length” value [7] was “significant reduction” and the “K M (DON)” value [8] was 1300 µM. The “V max with DON” value [8] was 0.26 µmol/min/mg, the “Specific activity (glucoside formation)” value [2] was 1.07 ± 0.03 nmol/min/mg and the “Specific activity (glucoside formation)” value [3] was 8.77 ± 0.52 nmol/min/mg. For the same molecule, the “Specific activity (glucoside formation)” value [9] was 6.60 ± 0.31 nmol/min/mg, the “K M (DON)” value [10] was 1100 µM and the “V max with DON” value [10] was 0.14 µmol/min/mg. For the same molecule, the “K M (DON)” value [11] was 290 µM, the “V max with DON” value [11] was 0.85 µmol/min/mg and the “DON concentration tolerated without significant reduction in root length” value [12] was “up to 50 mg l^−1”. The “DON concentration up to which root growth was observed” value [13] was “up to 16 mg l^−1” and the “DON concentrations at which root growth was not affected or barely affected” value [13] was 2 to 8 mg/L.

B1: HvUGT13248 (Hordeum vulgare subsp. vulgare) (protein)
chain: METTVTAVSGTTSSSVGHGAGGGAARVLLLPSPGAQGHTNPMLQLGRRLAYHGLRPTLVATRYVLSTTPAPGAPFDVAAISDGFDAGGMALCPDPAEYFSRLEAVGSETLRELLLSEARAGRPVRVLVYDAHLAWARRVAQASGVAAAAFFSQPCSVDVVYGELWAGRLALPATDGRALLARGVLGVELGLEDMPPFAAVPESQPAFLQVSVGQFEGLDYADDVLVNSFRDIEPKEVEYMELTWRAKMVGPTLPSYYLGDGRLPSNKSYGFDLFNSDVECMDWLEKQMNSSVVLVSYGTVSNYDATQLEELGNGLCNSSKPFLWVVRSNEEHKLSEELKEKCGKIGLIVSWCPQLEVLAHRAIGCFVTHCGWNSTLEALVNGVPFVGIPHWADQPTIAKYVESAWGMGVRARKNKNGCLKKEEVERCIREVMDGERKDEYKKNAMNWMQKAKEAMQEGGSSDKHVAEFATKYSSI
B1 showed a Km ([14]; pH 7.0) of 27 ± 4 µM and a Vmax ([14]; pH 7.0) of 18.2 ± 0.8 nmol/min/mg.

B2: BdUGT5g03370 (Brachypodium distachyon) (protein)
chain: MDSINTTAQRSIGGGGGHVLLLPFPGMQGHANPMLQLGRRLAYHGLRPTLVVTRYVFSTTATTDGCPFPVAAISDGFDAGGIASCPDTAEYLRRMESVGSETLSRLISDEARAGRPVRVLVYDSHLPWARRAAKRAGVAAAAFLTQLCAVDVIYGEAWAGRVALPLTDGSALRGVLSVELGPDDVPPFVAAPEWYPAFTESALGQFDGLEEADDVLVNSFRDLEPKEADYMELVWRTKTVGPTLPSFYLDDNRLPLNKTYGFNLFSSIALCMEWLDKQVPCSVVLASYGTVANLNSTQLEELGYGLCNSRQPFLWVLRSDEAEKLPKDLRDKCNTKGLIVPFCPQLEVLAHKATGCFLTHCGWNSTIEAIVTGVPMVAIPQWADQPTTAKYVESAWGIGRRACPDRECLVTREKIERCVKEVICGEKEYTRNAAKWMQKAKEAMQQGGSSDKNISDFVAKYL
B2 showed a Km [14] of 59 ± 7 µM and a Vmax [14] of 0.57 nmol/min/mg.

B3: BdUGT5g03380 (Brachypodium distachyon) (protein)
chain: MESVNTSPHSSDHEGGGGGGAHVLLVPLPAQGHMNPMLQFGRRLAYHGLRPTLAATRYVLSTGPPPGAPFRVAAFSDGFDAGGMASCADPVEYCRKFEAVGSSTLAQAIESETAAGRAPTVLVYDPHMAWVPRVARAAGVPVAAFMSQSCAVDLVYGEAWAGRAPLPMADGSALKRRGIVSIDLAAEDLSPFVVSPEIYPKYLDVSIRQFEALDDADDVFVNSFRDLEPLEAEYMEKRWRAKTVGPTLPSFFLGDDRLPSNKAYGVNFFSATAPCMAWLDRQPARSVVLASYGTVYNLESMELDELGNGLCDSGKPFLWVVRSSEAEKLSEQLLGRCKEKGLIVPWCPQLDVLAHNAIGCFLTHCGWNSTTEAIVAGVPMVAMPRSADQPTTAKYVESAWGIGVRVRADEKGLVKRAEVEGCIKKVMDGEMKDEFRGNAAEWMRKAKEAMQEGGSSDKNIAEFAAKYLER
For B3, the Km [14] was 150 µM and the Vmax [14] was 0.43 ± 0.03 nmol/min/mg.
